Legend:
Experiment in all cases: combination Emax (second highest fraction inhibited in the dose matrix, 72 h); higher = more inhibition; extreme values may be limits of the assay
[1] = tested on: C-33-A (Cervical Carcinoma)
Procedure, shortened: (§1)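 After 24 hours at 37°C and 5% CO2 in 1536-well plates, cells in DMEM/F12 or RPMI plus 10% FBS received two-drug dose matrices for 72 hours. Viability came from CellTiter-Glo 2.0 luminescence and was scaled as inhibition, anchored at 0 by vehicle wells and at 1 by blank wells. Combination Emax is taken as the second-highest inhibition in the matrix, and Bliss excess as the observed combination effect less EA + EB − EA·EB, with EA and EB the single-agent effects.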

[2] = tested on: CL-11 (Colorectal Carcinoma)
Procedure, shortened: as §1

[3] = tested on: COR-L88 (Small Cell Lung Carcinoma)
Procedure, shortened: as §1

GAK (Melanoma) = tested on: GAK (Melanoma)
Procedure, shortened: as §1

[4] = tested on: HT-1080 (Other Solid Carcinomas)
Procedure, shortened: as §1

IST-MEL1 (Melanoma) = tested on: IST-MEL1 (Melanoma)
Procedure, shortened: as §1

KALS-1 (Glioblastoma) = tested on: KALS-1 (Glioblastoma)
Procedure, shortened: as §1

[5] = tested on: KP-4 (Pancreatic Carcinoma)
Procedure, shortened: as §1

[6] = tested on: MOLP-8 (Plasma Cell Myeloma)
Procedure, shortened: as §1

[7] = tested on: MOLT-13 (T-Lymphoblastic Leukemia)
Procedure, shortened: as §1

[8] = tested on: MS-1 (Small Cell Lung Carcinoma)
Procedure, shortened: as §1

[9] = tested on: NCI-H1341 (Small Cell Lung Carcinoma)
Procedure, shortened: as §1

NCI-H226 (Mesothelioma) = tested on: NCI-H226 (Mesothelioma)
Procedure, shortened: as §1

[10] = tested on: NCI-H3118 (Head and Neck Carcinoma)
Procedure, shortened: as §1

[11] = tested on: PL4 (Pancreatic Carcinoma)
Procedure, shortened: as §1

[12] = tested on: SAT (Head and Neck Carcinoma)
Procedure, shortened: as §1

[13] = tested on: SK-CO-1 (Colorectal Carcinoma)
Procedure, shortened: as §1

[14] = tested on: SKG-IIIa (Cervical Carcinoma)
Procedure, shortened: as §1

[15] = tested on: SiHa (Cervical Carcinoma)
Procedure, shortened: as §1

| Compound | combination Emax [1] | combination Emax [2] | combination Emax [3] | combination Emax (GAK (Melanoma)) | combination Emax [4] | combination Emax (IST-MEL1 (Melanoma)) | combination Emax (KALS-1 (Glioblastoma)) | combination Emax [5] | combination Emax [6] | combination Emax [7] | combination Emax [8] | combination Emax [9] | combination Emax (NCI-H226 (Mesothelioma)) | combination Emax [10] | combination Emax [11] | combination Emax [12] | combination Emax [13] | combination Emax [14] | combination Emax [15] |
| --- | --- | --- | --- | --- | --- | --- | --- | --- | --- | --- | --- | --- | --- | --- | --- | --- | --- | --- | --- |
| CN(C)CCCOc1ccc(-c2ccc3ncc4c(c3c2)n(C2CCOCC2)c(=O)n4C)cn1 [AZD0156] + O=C(c1cc(Cc2n[nH]c(=O)c3ccccc23)ccc1F)N1CCN(C(=O)C2CC2)CC1 [Olaparib] (first compound max 3 µM, partner max 3 µM) | 0.419 | 0.358 | 0.16 | 0.193 | 0.134 | 0.228 | 0.135 | 0.287 | 0.67 | 0.397 | 0.438 | 0.306 | 0.251 | 0.305 | 0.34 | 0.133 | 0.608 | 0.139 | 0.261 |
| C=CCn1c(=O)c2cnc(Nc3ccc(N4CCN(C)CC4)cc3)nc2n1-c1cccc(C(C)(C)O)n1 [AZD1775] + C1CN(CCC1(C(=O)N[C@@H](CCO)C2=CC=C(C=C2)Cl)N)C3=NC=NC4=C3C=CN4 [Capivasertib] (first compound max 3 µM, partner max 3 µM) | 0.996 | 0.734 | 0.703 | 0.73 | 0.561 | 0.65 | 0.766 | 0.787 | 0.91 | 0.973 | 0.911 | 0.923 | 0.45 | 0.947 | 0.737 | 0.563 | 0.691 | 0.574 | 0.505 |
| COc1nnc2ccc(N3CCC(c4ccc(OCCN5CCN(C)C(=O)[C@H]5C)cc4)CC3)nn12 [AZD5153] + C=CCn1c(=O)c2cnc(Nc3ccc(N4CCN(C)CC4)cc3)nc2n1-c1cccc(C(C)(C)O)n1 [AZD1775] (first compound max 1 µM, partner max 1 µM) | 0.956 | 0.809 | 0.677 | 0.471 | 0.522 | 0.524 | 0.723 | 0.684 | 0.956 | 1 | 0.964 | 0.972 | 0.448 | 0.754 | 0.662 | 0.785 | 0.56 | 0.546 | 0.621 |
| COc1nnc2ccc(N3CCC(c4ccc(OCCN5CCN(C)C(=O)[C@H]5C)cc4)CC3)nn12 [AZD5153] + CC1(C)CCC(CN2CCN(c3ccc(C(=O)NS(=O)(=O)c4ccc(NCC5CCOCC5)c([N+](=O)[O-])c4)c(Oc4cnc5[nH]ccc5c4)c3)CC2)=C(c2ccc(Cl)cc2)C1 [Venetoclax] (first compound max 1 µM, 7x7, partner max 1 µM) | 0.379 | 0.677 | 0.348 | 0.478 | 0.322 | 0.14 | 0.616 | 0.526 | 0.945 | 0.987 | 0.906 | 0.688 | 0.438 | 0.568 | 0.572 | 0.723 | 0.321 | 0.42 | 0.505 |
| COc1nnc2ccc(N3CCC(c4ccc(OCCN5CCN(C)C(=O)[C@H]5C)cc4)CC3)nn12 [AZD5153] + CCN(CCO)CCCOc1ccc2c(Nc3cc(CC(=O)Nc4cccc(F)c4)[nH]n3)ncnc2c1 [AZD2811] (first compound max 1 µM, 7x7, partner max 1 µM) | 0.476 | 0.677 | 0.237 | 0.44 | 0.387 | 0.289 | 0.606 | 0.67 | 0.933 | 1 | 0.854 | 0.659 | 0.443 | 0.55 | 0.53 | 0.775 | 0.571 | 0.495 | 0.571 |
| COc1nnc2ccc(N3CCC(c4ccc(OCCN5CCN(C)C(=O)[C@H]5C)cc4)CC3)nn12 [AZD5153] + CN(CC[C@H](CSC1=CC=CC=C1)NC2=C(C=C(C=C2)S(=O)(=O)NC(=O)C3=CC=C(C=C3)N4CCC(CC4)[C@H](C5=CC=CC=C5C6=CC=C(C=C6)Cl)O)S(=O)(=O)C(F)(F)F)CCO [AZD4320] (first compound max 1 µM, 7x7, partner max 1 µM) |  | 0.782 |  |  | 0.618 |  |  |  | 0.98 | 1 |  | 1 |  |  | 0.809 | 0.804 |  |  | 0.527 |
| COc1nnc2ccc(N3CCC(c4ccc(OCCN5CCN(C)C(=O)[C@H]5C)cc4)CC3)nn12 [AZD5153] + C[C@@H]1COCCN1C2=NC(=NC(=C2)C3(CC3)[S@](=N)(=O)C)C4=C5C=CNC5=NC=C4 [AZD6738] (first compound max 1 µM, 7x7, partner max 10 µM) | 0.958 | 0.833 | 0.548 | 0.605 | 0.579 | 0.789 | 0.812 | 0.77 | 0.987 | 1 | 1 | 0.955 | 0.37 | 0.61 | 0.756 | 0.804 | 0.714 | 0.537 | 0.639 |
| COc1nnc2ccc(N3CCC(c4ccc(OCCN5CCN(C)C(=O)[C@H]5C)cc4)CC3)nn12 [AZD5153] + Cc1c2c(nn1C)CSCc1cc(n(C)n1)CSc1cc(c3ccccc3c1)OCCCc1c(C(=O)O)n(C)c3c-2c(Cl)ccc13 [AZD5991] (first compound max 1 µM, 7x7, partner max 1 µM) | 0.644 | 0.768 | 0.807 | 0.836 | 0.378 | 0.242 | 0.814 | 0.76 | 1 | 1 | 0.961 | 0.897 | 0.407 | 0.678 | 0.63 | 0.914 | 0.403 | 0.471 | 0.666 |
| COc1nnc2ccc(N3CCC(c4ccc(OCCN5CCN(C)C(=O)[C@H]5C)cc4)CC3)nn12 [AZD5153] + Cn1cnc2c(F)c(Nc3ccc(Br)cc3Cl)c(C(=O)NOCCO)cc21 [Selumetinib] (first compound max 1 µM, 7x7, partner max 10 µM) | 0.573 | 0.967 | 0.247 | 0.612 | 0.596 | 0.389 | 0.738 | 0.597 | 0.98 | 0.979 | 0.817 | 0.559 | 0.377 | 0.63 | 0.851 | 0.843 | 0.804 | 0.537 | 0.628 |
| Cc1c2c(nn1C)CSCc1cc(n(C)n1)CSc1cc(c3ccccc3c1)OCCCc1c(C(=O)O)n(C)c3c-2c(Cl)ccc13 [AZD5991] + CN(C)CCCOc1ccc(-c2ccc3ncc4c(c3c2)n(C2CCOCC2)c(=O)n4C)cn1 [AZD0156] (first compound max 1 µM, 7x7, partner max 1 µM) | 0.245 | 0.164 | 0.3 | 0.266 | 0.183 | 0.196 | 0.273 | 0.259 | 1 | 1 | 0.524 | 0.379 | 0.293 | 0.314 | 0.357 | 0.638 | 0.363 | 0.218 | 0.326 |
| NC1(C(=O)N[C@@H](CCO)c2ccc(Cl)cc2)CCN(c2ncnc3[nH]ccc23)CC1 [Capivasertib] + CC(=O)c1c(C)c2cnc(Nc3ccc(N4CCNCC4)cn3)nc2n(C2CCCC2)c1=O [Palbociclib] (first compound max 10 µM, 7x7, partner max 10 µM) | 0.679 | 0.358 | 0.226 | 0.474 | 0.101 | 0.48 | 0.398 | 0.595 | 0.655 | 0.732 | 0.266 | 0.506 | 0.3 | 0.519 | 0.478 | 0.662 | 0.419 | 0.27 | 0.252 |
| NC1(C(=O)N[C@@H](CCO)c2ccc(Cl)cc2)CCN(c2ncnc3[nH]ccc23)CC1 [Capivasertib] + CC(C)n1c(=O)n(C)c2cnc3cc(F)c(-c4ccc(OCCCN5CCCCC5)nc4)cc3c21 [AZD1390] (first compound max 10 µM, 7x7, partner max 0.3 µM) | 0.675 | 0.223 | 0.0851 | 0.219 | 0.194 | 0.359 | 0.41 | 0.355 | 0.452 | 0.132 | 0.307 | 0.532 | 0.335 | 0.247 | 0.24 | 0.555 | 0.281 | 0.244 | 0.241 |
| CC(=O)c1c(C)c2cnc(Nc3ccc(N4CCNCC4)cn3)nc2n(C2CCCC2)c1=O [Palbociclib] + CN(CC[C@H](CSC1=CC=CC=C1)NC2=C(C=C(C=C2)S(=O)(=O)NC(=O)C3=CC=C(C=C3)N4CCC(CC4)[C@H](C5=CC=CC=C5C6=CC=C(C=C6)Cl)O)S(=O)(=O)C(F)(F)F)CCO [AZD4320] (first compound max 10 µM, 7x7, partner max 1 µM) |  | 0.759 |  |  | 0.415 |  |  |  | 0.542 | 0.975 |  | 0.992 |  |  | 0.483 | 0.485 |  |  | 0.104 |
| C[C@@H](c1ccc2nccn2c1)n1nnc2ncc(-c3cnn(C)c3)nc21 [Savolitinib] + CN(CC[C@H](CSC1=CC=CC=C1)NC2=C(C=C(C=C2)S(=O)(=O)NC(=O)C3=CC=C(C=C3)N4CCC(CC4)[C@H](C5=CC=CC=C5C6=CC=C(C=C6)Cl)O)S(=O)(=O)C(F)(F)F)CCO [AZD4320] (first compound max 1 µM, 7x7, partner max 1 µM) |  | 0.173 |  |  | 0.566 |  |  |  | 0.216 | 0.912 |  | 1 |  |  | 0.472 | 0.189 |  |  | 0.224 |
